Experimental data taken from patent US12263172B2, “Toll-like receptor agonists for use in the treatment of hepatitis b” (priority 2019, dated 2025).
“And” between values parts separate entries of the source, which are not always exact repeats. Identical values can stand only once. “Also recorded” adds a separate entry of the source. Like-named read-outs stand apart in the source and are kept apart here.

What was measured:
[1] = 14-week rat toxicity study; format: in vivo; settings: 5 mg/kg biw
Source text: (§1) Exposure increased more than dose-proportionally at low doses. Variability in exposure was high. • In vitro plasma protein binding was between 79.6% and 94.2% in animals and humans. Volume of distribution after intravenous dosing was high. […] Main metabolic pathways were oxygenation, hydrogenation, dehydrogenation, dealkylation, acetylation, glucuronidation, and/or glutathione conjugation. • In rats, >80% of drug-related material was found in feces, 11% to 20% in bile, and <4% in urine. […] There were no effects on embryofetal development up to 1 mg/kg/dose in rats and 30 mg/kg/dose in rabbits.

[2] = biological target: CYP3A4 (Homo sapiens, UniProt P08684); test: CYP3A4 substrate and inhibition; format: in vitro ADME
Chain of CYP3A4 (P08684 whole entry): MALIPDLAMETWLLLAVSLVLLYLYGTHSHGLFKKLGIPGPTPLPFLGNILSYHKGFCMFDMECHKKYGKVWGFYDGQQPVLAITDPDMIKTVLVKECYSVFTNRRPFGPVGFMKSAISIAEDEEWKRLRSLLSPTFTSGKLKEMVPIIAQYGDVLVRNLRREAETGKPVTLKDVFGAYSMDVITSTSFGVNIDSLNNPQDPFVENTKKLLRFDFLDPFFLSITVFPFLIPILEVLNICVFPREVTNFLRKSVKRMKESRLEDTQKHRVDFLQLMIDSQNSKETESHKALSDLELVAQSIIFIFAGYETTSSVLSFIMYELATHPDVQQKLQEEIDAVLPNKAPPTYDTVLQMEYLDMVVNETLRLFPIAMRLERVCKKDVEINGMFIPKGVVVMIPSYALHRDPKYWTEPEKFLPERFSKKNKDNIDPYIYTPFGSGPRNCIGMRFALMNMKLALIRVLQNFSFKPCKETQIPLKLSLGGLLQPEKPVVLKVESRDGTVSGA
Source text: as §1

[3] = embryofetal development in rats; format: in vivo
Source text: as §1

[4] = test system: cytokines and ISGs (ISG15, MX1, OAS1); test: Phase 1 multiple dose pharmacodynamics in healthy adults; format: in vivo, human; settings: 1.25 mg qw
Method: Serum levels of IFN-α were measured by ELISA. Serum levels of IP-10, IFN-γ, TNF-α, IL-12 (subunit P40), IL-6, IL-1β, IL-1RA, IL-18, MCP-1, MIP-1β, G-CSF, GM-CSF, IL-10, IL-15 were measured by Luminex xMAP technology. The LLOQ for IFN-α was determined at 12.5 pg/mL and at 25 pg/mL for all other cytokines measured. Fold changes for each of the cytokines were calculated compared to predose values or LLOQ-1 values if predose values were below LLOQ.
IFN-stimulated gene (ISG) expression analysis was conducted for 3 genes, ISG15, MX1, and OAS1, using quantitative polymerase chain reaction (qPCR) on collected whole blood samples. For the ISGs, relative fold changes from baseline were calculated according to the delta delta Cycle threshold (Ct) method (2^[Delta Delta Ct]). Assessments were done for Part 1 predose and postdose: 1.5 hours, 6 hours, 12 hours (Day 1), 24 hours (day 2), 48 hours (Day 3), 96 hours (Day 5), follow-up Week 2. For the Part 2, assessments were done predose and post the first and fourth dose: 2 hours, 4 hours, 12 hours, 24 hours, 48 hours, 96 hours and one week follow-up; and post the second and third doses: 12 hours and 48 hours.

[5] = in vitro plasma protein binding; format: in vitro ADME; settings: human, animals and humans
Source text: as §1

[6] = embryofetal development in rabbits; format: in vivo
Source text: as §1

[7] = Phase 1 multiple dose pharmacokinetics in healthy adults; format: in vivo, human
Method: (§2) Following a single dose of Compound 4, intensive blood samples were collected over the first 24 hours, samples were then collected daily through Day 7, and weekly samples were collected through Day 35. Plasma concentrations of Compound 4 were evaluated using a validated liquid chromatography with tandem mass spectrometry method; the lower limit of quantification was 1 pg/mL. PK parameters were estimated using non-compartmental analysis (WinNonlin®, Certara, Princeton, NJ, USA). Descriptive statistics were used to summarize plasma concentrations and derived PK parameters of Compound 4. The impact of food on PK parameters was analyzed using geometric least square mean point estimates (mixed-effects model on log-transformed values with treatment as fixed effect and subject as a random effect).
Compound 4 was administered every week for 4 weeks in fasted condition at a dose of 1.25 mg.

[8] = Phase 1 single oral dose pharmacokinetics in healthy adults; format: in vivo; settings: for AUC(0-t): read-out: AUC24 h
Method: This ongoing trial is a Phase 1 randomized, double-blind, placebo-controlled study in male and female healthy adult volunteers aged 18-55 years. All volunteers provided written, informed consent. For the SAD phase, 8-10 volunteers per cohort were randomized 6-8:2 to receive a single oral dose of either Compound 4 0.2 (N=6), 0.6 (N=6), 1.25 (N=8) or 1.8 mg (N=6) or placebo (N=2/dose group) under fasted conditions; following an ˜6-week washout period, the cohort subjects which had received 1.25 mg under fasted conditions in Cohort 4 were given the same 1.25 mg dose (N=7) under fed conditions (a standard meal consumed before dosing), in Cohort 6 (FIG. 1). Escalation of the Compound 4 dose was only permitted following a review of the safety and PK data from the previous cohort.
as §2

[9] = test system: human whole blood cells; test: cytokine release in vitro in whole blood cells; format: cell-based
Source text: as §1
LEC for Compound 4-induced cytokine release in vitro was determined to be 2 nM.

[10] = pharmacokinetics and excretion in rat; format: in vivo
Source text: as §1

[11] = test system: HBV-infected PHHs; test: antiviral activity of compound-stimulated human whole blood and PBMC supernatant in HBV-infected PHHs; format: cell-based
[12] = cardiovascular safety pharmacology in monkeys; format: in vivo; settings: secondary to an increase in body temperature
Source text: as §1

[13] = 12 hours after the second administration
[14] = after 4 weeks of qw dosing, 1.25 mg
[15] = both sexes, human, plasma, oral, 0.2 mg, single dose 0.2 mg fasted, mean ± SD
[16] = both sexes, human, plasma, oral, 0.6 mg, single dose 0.6 mg fasted, mean ± SD
[17] = both sexes, human, plasma, oral, 1.25 mg, single dose 1.25 mg fasted, mean ± SD
[18] = both sexes, human, plasma, oral, 1.25 mg, single dose 1.25 mg fed, mean ± SD
[19] = both sexes, human, plasma, oral, 1.8 mg, single dose 1.8 mg fasted, mean ± SD

CCCCOc1nc(N)c2[nH]cc(Cc3ccc(CN4CCCC4)cc3)c2n1 [Compound 4]
brain inflammation [1]: Brain inflammation occurred
CYP3A4 substrate [2]: substrate
IC50 [2]: 590 nM
post-implantation loss and fetal weights ([3]; pregnant rats, 3 mg/kg biw): Post-implantation loss and fetal weights effects were noted
dose without effects on embryofetal development ([3]; rats): up to 1 mg/kg/dose
IFN-α or IP-10 levels before the subsequent dose [4]: values returned to baseline before administration of the subsequent dose
PD responses after the last dose compared to the first dose [4]: No enhanced induction of PD responses as well as no evidence for tachyphylaxis
fold increase of IFN-α in the subject with cotton wool spots [4, 13]: 8.4 fold
maximum IFN-α level in the subject with cotton wool spots [4, 13]: 97 pg/mL
fraction unbound [5]: 0.058 to 0.204
dose without effects on embryofetal development [6]: ≤ 30 mg/kg/dose
excreted as unchanged drug in urine within the first 24 hours after the first and second dosing ([7]; 1.25 mg qw fasted): Less than 0.22%
terminal elimination, median value ([7]; 1.25 mg qw fasted): 244 h
mean accumulation ratio for AUC24h [7, 14]: 1.83
mean accumulation ratio for AUC72h [7, 14]: 2.27
mean accumulation ratio for AUCT [7, 14]: 2.75
Cmax ([7]; human, plasma, oral, 1.25 mg, 1.25 mg qw fasted, SD 67.2, read-out: mean Cmax after the fourth dose): 0.235 ng/mL
Cmax ([7]; human, plasma, oral, 1.25 mg, 1.25 mg qw fasted, SD 88.4, read-out: mean Cmax after the first dose): 0.186 ng/mL
AUC ([7]; human, plasma, oral, 1.25 mg, 1.25 mg qw fasted, SD 591, read-out: mean AUC24h after the fourth dose): 1.76 ng·h/mL
AUC ([7]; human, plasma, oral, 1.25 mg, 1.25 mg qw fasted, SD 874, read-out: mean AUC24h after the first dose): 1.21 ng·h/mL
concentration at 21 days ([7]; human, plasma, oral, 1.25 mg qw fasted, read-out: mean Ctrough before the fourth dose): 0.0408 ± 0.0489 ng/mL
concentration at 7 days ([7]; human, plasma, oral, 1.25 mg qw fasted, read-out: mean Ctrough before the second dose): 0.00717 ± 0.0032 ng/mL
least square mean ratio point estimate of AUC48h, fed vs fasted ([8]; 1.25 mg, 90% CI 65.89-105.71): 83.45
Predose Level ([8]; before 1.25 mg fed dose, on average 41 days after 1.25 mg fasted dose, mean ± SD): 1.85 pg/mL and 1.85 ± 0.597 pg/mL
Cmax [8, 15]: 0.0344 ± 0.0179 ng/mL
AUC(0-t) [8, 15]: 0.19 ± 0.0972 ng·h/mL
Tmax ([8]; both sexes, human, plasma, oral, 0.2 mg, single dose 0.2 mg fasted, median (range), read-out: tmax): 30 min
Cmax [8, 16]: 0.109 ± 0.0281 ng/mL
AUC(0-t) [8, 16]: 0.594 ± 0.21 ng·h/mL
Tmax ([8]; both sexes, human, plasma, oral, 0.6 mg, single dose 0.6 mg fasted, median (range), read-out: tmax): 30 min
Cmax [8, 17]: 0.143 ± 0.0659 ng/mL
AUC(0-t) [8, 17]: 0.815 ± 0.251 ng·h/mL
Tmax ([8]; both sexes, human, plasma, oral, 1.25 mg, single dose 1.25 mg fasted, median (range), read-out: tmax): 45 min
Cmax [8, 18]: 0.152 ± 0.0764 ng/mL
AUC(0-t) [8, 18]: 0.659 ± 0.194 ng·h/mL
Tmax ([8]; both sexes, human, plasma, oral, 1.25 mg, single dose 1.25 mg fed, median (range), read-out: tmax): 30 min
Cmax [8, 19]: 0.309 ± 0.136 ng/mL
AUC(0-t) [8, 19]: 1.37 ng·h/mL
Tmax ([8]; both sexes, human, plasma, oral, 1.8 mg, single dose 1.8 mg fasted, median (range), read-out: tmax): 30 min
concentration at 41 days ([8]; both sexes, human, plasma, oral, before 1.25 mg fed dose, on average 41 days after 1.25 mg fasted dose, mean ± SD, read-out: Predose Level): 0.00185 ng/mL
CL renal ([8]; both sexes, human, plasma, oral, single dose 1.25 mg fasted, range 1.86-3.81, read-out: mean renal clearance (converted)): 42.8 mL/min
Tmax ([8]; both sexes, human, plasma, po, single oral doses 0.2 to 1.8 mg, read-out: tmax, range over doses): 30 to 60 min
half-life ([8]; both sexes, human, plasma, single oral doses 0.2 to 1.8 mg, read-out: median t1/2 term, range over doses): 5.25 to 36.2 days
t1/2term ([8]; single dose 0.2 mg fasted, median (range)): 150 (126-212) h
CL/F ([8]; single dose 0.2 mg fasted, n = 1): 149 L/h
t1/2term ([8]; single dose 0.6 mg fasted, median (range)): 284 (104-479) h
CL/F ([8]; single dose 0.6 mg fasted, n = 1): 244 L/h
excreted as unchanged drug in urine within the first 24 hours ([8]; single dose 1.25 mg fasted): less than 0.2%
t1/2term ([8]; single dose 1.25 mg fasted, median (range)): 448 (372-502) h
CL/F ([8]; single dose 1.25 mg fasted, n = 3): 254 L/h
t1/2term ([8]; single dose 1.25 mg fed, median (range)): 591 (448-868) h
t1/2term ([8]; single dose 1.8 mg fasted, median (range)): 194 (185-205) h
dose proportionality of exposure ([8]; single oral doses 0.2 to 1.8 mg fasted): increased in proportion with the dose; also recorded: dose-proportional pharmacokinetics
overall LEC for cytokine release in vitro [9]: 2 nM
potency on human versus monkey whole blood cells ([9]; most cytokines and chemokines tested): more potent on human whole blood cells compared to monkey whole blood cells
bioavailability ([10]; rat, in vivo, po): 15%
drug-related material found in feces ([10]; rats): > 80%
drug-related material found in urine ([10]; rats): < 4%
anti-HBV activity target concentration in vitro [11]: 3.3 nM
maximum decline of HBV DNA compared to DMSO controls ([11]; 3.3 nM): 1.5 log 10
maximum decline of HBV RNA compared to DMSO controls ([11]; 3.3 nM): 1.1 log 10
maximum decline of HBeAg compared to DMSO controls ([11]; 3.3 nM): 1.3 log 10
maximum decline of HBsAg compared to DMSO controls ([11]; 3.3 nM): 0.4 log 10
heart rate and arterial blood pressure [12]: transient increase in heart rate and arterial blood pressure
